Test results from patent US6605305B2, “Plant drug for treatment of liver disease” (priority 2001, dated 2003).
Marks after values point to notes of the source that are not given here.

Experiments:
[1] = system: indomethacin induced small intestine mucosal damage; test: Indomethacin induced small intestine mucosal damage; assay type: in vivo, rats
Procedure: The experiment of animal was performed as previously described. Mucosal damage in gastrointestinal tract was induced ethanol or indomethacin administration. In ethanol-treated animals, after 24 hours of fasting, ethanol was given orally (70%, v/v, 10 ml/kg) by means of an oral gastric. Mucosal damage was assessed by measurement of areas with hemorrhagic lesion. In the indomethacin ulcer model, rats were refed for 1 hour after 24 hours of fasting. Thirty minutes later, indomethacin (15 mg/kg) was administered subcutaneously and rats were killed 24 hours later. Mucosal lesions were again measured along the greatest diameter. […] SCS administration was repeated again 6 hours after indomethacin injection.

[2] = system: Hepatoma; test: DNA synthesis of cancer cells ([^3H]TdR incorporation), hepatoma; assay type: in vivo, rats
Procedure: The method of animal and liver was described previously. Ascitric hepatoma, S180-ν, the transplantable 3924 used. After treatment with SCS (100 mg/kg), rats were injected with [^3H]-TdR (10 μc/μmole). Two hours after injection the animals were decapitated and examined. Livers and tumors were rapidly removed and blotted on filter paper. Tumors were carefully dissected free of necrotic, hemorrhagic, and nontumorous material. Tissues were minced with sharp scissors and 2 gm. DNA was prepared from the tissues. The radioactivity of the DNA was determined by liquid scintillation counting.
The incorporation of thymidine into DNA ws expressed as cpm/mg of DNA or cpm/gm of tissue.

[3] = system: Glutathione (GSH); test: Hepatic mitochondrial GSH level in CCl4-treated mice; assay type: in vivo; details: CCl4 + SCS
Procedure: (§1) Female Balb/c mice (22-24 g) were maintained at 20° C. and a 12 hours light/dark cycle. The food and water allowed adliboti. Mice were randomly assigned to groups of 20 individuals. Twenty-four hours after the last dosing, animals were administered an oral dose of CCl4 (1%, v/v, in olive oil) at 1.0 mmol/kg. In treatment group, mice were treated intragastrically with SCS at daily dose of 50 mg/kg for 4 days. Control animals were given the vehicle (i.e. olive oil, 1 mL/kg). Twenty-four hours after intoxication, heparinized blood samples were drawn from ether-anesthetized mice by cardiac puncture, and the animals were killed by cardiac excision thereafter.
(§2) The rats were starved overnight before decapitation. The livers were perfused in situ with ice-cold 1.15% KCl solution. Tissue homogenate was prepared by homogenizing 1 g of hepatic tissue sample in 10 mL ice-cold homogenizing buffer with two 10-secbursts of atissue disintegrator at 135,000 rpm. Hepatic mitochondrial fraction was prepared by differential centrifugation in isotonic buffer ([…], 0.1 mM EDTA, 5 mM Tris, pH 7.4).
The experiments of animal and livers were performed as previously described. Glutathione (GSH) level was determined by an HPLC method. In the present study, the effect of SCS on GHS and GRD were examined.

[4] = system: c-myc RNA; test: Inhibition of oncogene expression in ML-1 cells (northern blot), c-myc; assay type: cell-based, Human
Procedure: (§3) Human myeloblastic leukemic cells (ML-1) were maintained in suspension culture in RPMI 1640 medium supplemented with 7.5% heat-inactivated FBS. Cells growth and viability were assayed by hemocytometer using trypan-blue dye exclusion.
(§4) RNA was isolated by the CsCl gradient modification. RNA pellets were washed twice by reprecipitation in ethanol and quantitated by absorbency at […]. RNA analyzed by electrophoresis of 15 μg of RNA through 1.2% agarose formaldehyde gels followed by northern blot transfer to nitrocellulose.
(§5) Single-standard uniformly labeled DNA probes were prepared. Probe of c-myc was a 1.7 Kb cla-Eco RI restriction fragment containing the 3′exon region of human c-myc and probe of c-myb was 1.0 Kb myb-specific Bam HI fragment. Probes for n-ras contained DNA fragments using a modification of the PCR technique. Probes for myb, myc and n-ras were isolated. The isolated fragments were labeled to high specific activity with [α^32P]-dCTP (3000 ci/mmol).
(§6) Prehybridization of the filter was performed. The hybridization mixer contained 50,000 cpm of probe. The probes were hybridized at 58° C. in 15 mM NaCl, […] sodium citrate for 3 hours. After hybridization, they were exposed to XAR-5 film. Oncogene expression was quantitated by densitometer scanning of the autoradiography.

[5] = system: complement; test: Effect of SCS on complement; assay type: in vivo, mice
[6] = system: bovine aortic smooth muscle cell modified LDL; test: Cell-modified LDL oxidation (MDA); assay type: cell-based; details: LDL + 100 μg SCS/ml, 24 hours, 37° C.
[7] = system: DNA synthesis of liver; test: Liver DNA synthesis ([^3H] thymidine incorporation) in CCl4-intoxicated mice; assay type: in vivo; details: SCS 50 mg/kg intragastrically daily for 4 days
Procedure: as §1
[^3H] thymidine (10 μCi/100 g body weight) was injected intraperitoneally and mice were killed 2 hours after the infection. Mice were killed at 12, 24, 36, 48, 72 and 120 hours and their livers were removed.
DNA synthesis was determined by the incorporation of [^3H] thymidice into the acid-insoluble fraction. The liver was homogenized in 4 volumes of distilled water. Two ml of homogenate were added to an equal volume of 10% trichloroacetic acid (TCA) solution and centrifuged at 900 g for 10 minutes. The resultant pellet was washed with 5% TCA twice and suspended again in 2 ml of 5% TCA solution. The suspension was incubated at 90° C. for 20 minutes and centrifuged at 900 g for 10 minutes. One ml of the supernatant was put into a scintillation vial and 10 ml of a toluene-based scintillation fluid containing DPO (0.4%), POPOP (0.01%), and Triton X-100 (30%) as added. The radioactivity was counted in a Packard Tri-Carb Liquid scintillation counter. The DNA content of the supernatant was assayed by the method of using calf thymus DNA as the standard.

[8] = system: Serum alamine aminotransferase (ALT); test: Serum ALT activity in CCl4-intoxicated mice; assay type: in vivo
Procedure: as §1
Animal section described as previously. Plasma was obtained by centrifugation. The whole blood at 2000×g at 4° C. Serum alamine aminotransferase (ALT) activity was determined by assay kit from Sigma Chemical Co.

[9] = system: ATP; test: ATP concentration with TET; assay type: biochemical; details: TET 5 μl/L + SCS (100 μmol/L)
Procedure: In present study, the effect of SCS on ATP and oxygen consumption was examined. The experiments of animal and livers were performed as previously described.

[10] = system: RBL-5; test: NK cell activity of mice (^51Cr release), RBL-5 target cells; assay type: in vivo; details: oral dose of 100 mg/kg
[11] = system: mice; test: Acute toxicity in mice; assay type: in vivo
From the text: a. Route of Administration: intravenous and intraperiotoneal injection
b. Route of administration: the oral route

[12] = system: Glutathione S-trasferase (GST); test: Liver GST activity in CCl4-intoxicated mice; assay type: in vivo
Procedure: as §1, §2
Glutathione S-trasferase (GST) was determined. Total GST activity in the 105000 g supernatants of the liver homogenate was measured in 100 mM postassium-phosphate buffer (pH 6.5) containing 1 mM glutathione and 1 mM 1-chloro-2, 4-dinitrobenzene.

[13] = system: Gastric cancer cells; test: Effect of SCS on p^53 mutations of cancer cells (PCR-SSCP); assay type: cell-based; details: Gastric cancer cells treated by SCS
[14] = system: NADPH-cytochrome Creductase; test: Hepatic microsomal monooxygenases: NADPH-cytochrome C reductase; assay type: in vivo; details: rat liver microsomes, treatment group
[15] = system: c-myb RNA; test: Inhibition of oncogene expression in ML-1 cells (northern blot), c-myb; assay type: cell-based, Human
Procedure: as §3, §4, §5, §6

[16] = system: Aflatoxin B1 induced liver cancer; design: species or system rats; details: rat, in vivo

## COc1cc2c(c(OC)c1OC)-c1c(cc(OC)c(OC)c1OC)C[C@](C)(O)[C@@H](C)C2 [SCS, Schisandrin]
[1]; SCS 10 mg/kg
  Lesion area (mm^2) Small intestine: 350 ± 38* mm^2
[1]; SCS 25 mg/kg
  Lesion area (mm^2) Small intestine: 321 ± 33** mm^2
[1]; SCS 50 mg/kg
  Lesion area (mm^2) Small intestine: 295 ± 30** mm^2
[2]; Hepatoma T versus C
  Tissue inhibition rate (%): 56.4%
[2]; Hepatoma T, SCS 100 mg/kg
  [^3H]TdR into DNA × 10^−3 cm/mg: 8.8 ± 0.80 × 10^−3 cm/mg
[3]
  GSH: 21.8 ± 2.0 nmol/mg protein
[4]; SCS concentration 10 ng/ml
  Inhibition (%) c-myc RNA: 70.5 ± 8.5%
[4]; SCS concentration 50 ng/ml
  Inhibition (%) c-myc RNA: 70.8 ± 8.9%
[5]; treatment group
  C.P.M.: 480 ± 51
[5]; treatment versus control
  CPM of T/C: 194.3%
[6]
  MDA (nmol/mg protein, x ± s): 2.80 ± 0.29 nmol/mg protein
[7]; 12 h
  DNA synthesis (cpm/mg DNA): 6520 ± 678 cpm/mg DNA
[7]; 24 h
  DNA synthesis (cpm/mg DNA): 12305 ± 1405 cpm/mg DNA
[7]; 48 h
  DNA synthesis (cpm/mg DNA): 8910 ± 920 cpm/mg DNA
[7]; 72 h
  DNA synthesis (cpm/mg DNA): 9300 ± 940 cpm/mg DNA
[8]; CCl4 + SCS, serum, mice, SCS 50 mg/kg intragastrically daily for 4 days
  ALT (X ± S): 68.8 ± 7.0 U L^−1
[8]; CCl4 mice, versus control
  CCl4 toxicity decreased by SCS (ALT): 87.9%
[9]
  ATP: 35.8 ± 4.0* 100 μmol/L
[10]; effector/target 50:1
  % Specific lysis (mean ± SEM) RBL-5: 12.1 ± 1.2 %
[10]; effector/target 100:1
  % Specific lysis (mean ± SEM) RBL-5: 19.8 ± 2.0 %
[11]; intragastric administration
  LD50: 5200 mg/kg
[11]; intraperitoneal injection
  LD50: 1250 mg/kg
[11]; intravenous
  LD50 intravenous versus dose used in clinical trials for human being: > 100 times
[11]; intravenous injection
  LD50: 720 mg/kg
[12]; CCl4 + SCS, liver homogenate supernatant
  GST activity: 2.60 ± 0.28 μmol/mg protein
[12]; versus CCl4 control
  Inhibition of GST activity: 55.5%
[13]
  Frequency of p^53 mutations (%): 10%
[14]
  NADPH-cytochrome Creductase: 202.5 ± 22 nmol/mg protein
[15]; SCS concentration 10 ng/ml
  Inhibition (%) c-myb RNA: 65.0 ± 5.7%
[15]; SCS concentration 50 ng/ml
  Inhibition (%) c-myb RNA: 67.7 ± 6.8%
[16]
  % of iron-excluding area in liver section: 2.2 ± 0.2 %
